Consider 4 compounds from patent US20230303817A1, “BLENDED POLYVINYL ALCOHOL DRUG DELIVERY SYSTEMS” (The University of British Columbia, priority 2020, published 2023).

A short description of series [1]: Release of other therapeutic agents from blended PVA cast films or electrospun membranes. The class given is physicochemical. The following applies: for drug release: 1% gentamicin. As to the method:
Films or electrospun membrane were manufactured as described above containing either docetaxel, doxycycline, gentamicin or bovine serum albumin (BSA; as a protein model for any “biological” based drug such as an antibody). […] Gentamicin was analyzed using a fluorescence tag assay using Fluoraldehyde™ (Thermo Fisher) and BSA protein release was assayed using a BCA protein analysis kit.

The conditions of series [2]: cited from earlier work.
Series [3] can be described thus: Film swelling and degradation studies in deionized water (cast films and electrospun membranes). The following applies: cast films with 48% and 46% PVA 99% content (rest PVA 88%). Format: physicochemical.
Description: PVA films or electrospun membranes were prepared as described above. These films were then stored for one week in the dark before use. Small sections of films (approximate diameters of 2 cm) were then placed on moist 0.2 µm filter discs (Millipore, Billerica, MA, USA) and weighed. The films and filters were covered with a thin layer of deionized water and left for appropriate times. After set time points the filter discs and adherent PVA-silver gel were moved to a Millipore vacuum apparatus and all excess water was removed from the filter over approximately 15 seconds. The combined PVA gel and filter were reweighed and recovered with a fresh layer of excess water. The weight gain (swelling) and weight loss (dissolution) were then calculated as a percentage of the original dry film weight.
Series [4] can be described thus: Silver release studies (inductively coupled plasma analysis of release media). As to conditions: electrospun membranes 10:90 PVA99%:PVA88%, 1% w/w silver salt. The class given is physicochemical.
Description: Films or electrospun membranes containing silver were placed in deionized water and the media sampled at regular intervals for silver analysis by Inductively coupled plasma analysis. Silver calibration standards were run every 10 samples. The instrument held reproducible standard curves over 100 sequential silver analysis with detection limits approximating 10 ng/ml. Each release study was run in triplicate for at least two weeks and the results plotted as the calculated percent silver released as a function of time.
The subject of another series is MRSA strain USA300. In words: Antimicrobial efficacy of silver-loaded PVA films and membranes. Format: cell-based, S. aureus. As to conditions: for bacterial death: 1% w/w silver, 20 mg in 10 mL, up to 48 hours; for Anti-bacterial (MRSA) activity: 1% w/w silver salt (FIG. 11).
The mark [5] stands for this setting: electrospun membranes 10:90 PVA99%:PVA88%.

In brackets after ≈: the same amount, converted by molar mass. Where only a bound is given, the exact number is not on record here.

Description for MRSA strain USA300: In order to illustrate the antimicrobial activity of PVA-silver formulations, all cast films and electrospun membranes were weighed at 20 mg +/- 0.5 mg. The methicillin resistant strain of S. aureus (MRSA strain USA300) was cultured overnight from freezer stocks (20 µL bacterial sample into 20 mL Luria Bertani (LB) broth), followed by a second sub-culture (200 µL in 20 mL LB broth) until an optical density of -0.3-0.5 at λ=600 nm was reached (measured using an Eppendorf BioPhotometer (Eppendorf, Mississauga, ON, Canada), at which point bacteria were used as outlined below.

Turning to `CC(=O)O[C@@]12CO[C@@H]1C[C@H](O)[C@@]1(C)C(=O)[C@H](O)C3=C(C)[C@@H](OC(=O)[C@H](O)[C@@H](NC(=O)OC(C)(C)C)c4ccccc4)C[C@@](O)([C@@H](OC(=O)c4ccccc4)[C@H]21)C3(C)C` [docetaxel], in series [1] (electrospun membranes 35:65, 45:55 or 55:45 PVA 99%:88%, 1% docetaxel, over 7 days), the “drug release, % of total drug” value was 5-8%.

For the compound `C[C@H]1c2cccc(O)c2C(=O)C2=C(O)[C@]3(O)C(=O)C(C(N)=O)=C(O)[C@@H](N(C)C)[C@@H]3[C@@H](O)[C@@H]21` [doxycycline], the water solubility in series [2] was 500 µg/mL (≈ 1130 µM).

As to `O=S(=O)([O-])[O-].[Ag+].[Ag+]` [silver sulphate], the “swelling at 6 hours” value in series [3] is given as above 0%. Further, in series [4], the “silver release by day 11” value was found to be 75%. The bacterial death with MRSA strain USA300 (cast films 40:60 PVA99%:PVA88%) and in the series with MRSA strain USA300 (setting [5]) was 100% throughout. The “Anti-bacterial (MRSA) activity” value in the series with MRSA strain USA300 (setting [5]) and in the series on MRSA strain USA300 (films 40:60 PVA99%:PVA88%) was “killed all MRSA bacteria” throughout.

As for gentamicin, the drug release is 50-70% in series [1] (cast films 35:65, 45:55 or 55:45 PVA 99%:88%, over 7 days) and 40% in series [1] (electrospun membranes 35:65, 45:55 or 55:45 PVA 99%:88%, over 6 days).
